Data: patent US5789404A, “3-substituted 1-arylindole compounds” (H. Lundbeck A/S, priority 1993, dated 1998)
Counter-ions that a name gives are not always drawn.

Assays:
5-HT2 receptors = molecular target: T1, 5-HT2 receptors (Rattus norvegicus, UniProt P14842); assay: Inhibition of ^3 H-Ketanserin Binding to 5-HT2 Receptors in Rat Cortex in vitro; settings: ^3 H-Ketanserin 0,5 nM; rat cortex membranes; read-out: 5-HT2 binding ^3 H ketanserin, IC50
T1 construct: 5-HT2 Receptors in Rat Cortex in vitro; from tissue; host or cells: rat cortex membranes
T1 sequence (P14842 whole entry): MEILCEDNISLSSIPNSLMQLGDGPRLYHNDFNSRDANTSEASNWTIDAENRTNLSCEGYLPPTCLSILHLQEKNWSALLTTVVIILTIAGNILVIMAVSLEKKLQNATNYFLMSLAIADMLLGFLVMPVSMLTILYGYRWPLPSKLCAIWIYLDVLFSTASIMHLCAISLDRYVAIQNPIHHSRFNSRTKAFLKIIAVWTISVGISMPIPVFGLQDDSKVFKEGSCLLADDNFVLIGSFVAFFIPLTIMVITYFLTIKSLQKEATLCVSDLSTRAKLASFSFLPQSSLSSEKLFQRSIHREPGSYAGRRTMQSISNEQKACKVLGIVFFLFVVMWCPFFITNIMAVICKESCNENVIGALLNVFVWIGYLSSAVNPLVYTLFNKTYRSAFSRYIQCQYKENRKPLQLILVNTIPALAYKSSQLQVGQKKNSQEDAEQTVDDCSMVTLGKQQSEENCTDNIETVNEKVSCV
Experimental: Inhibition of ^3 H-Ketanserin Binding to 5-HT2 Receptors in Rat Cortex in vitro
By this method the inhibition by drugs of the binding of ^3 H-Ketanserin (0,5 nM) to 5-HT2 receptors in membranes from rat is determined in vitro. The method is described in Hyttel, Pharmacol. & Toxicol.

dopamine D2 receptors = dopamine D2 receptors (Rattus norvegicus, UniProt P61169); assay: biochemical; type: binding; settings: read-out: Dopamin D2 binding ^3 H spiroperidol, IC50
dopamine D2 receptors, sequence (P61169 whole entry): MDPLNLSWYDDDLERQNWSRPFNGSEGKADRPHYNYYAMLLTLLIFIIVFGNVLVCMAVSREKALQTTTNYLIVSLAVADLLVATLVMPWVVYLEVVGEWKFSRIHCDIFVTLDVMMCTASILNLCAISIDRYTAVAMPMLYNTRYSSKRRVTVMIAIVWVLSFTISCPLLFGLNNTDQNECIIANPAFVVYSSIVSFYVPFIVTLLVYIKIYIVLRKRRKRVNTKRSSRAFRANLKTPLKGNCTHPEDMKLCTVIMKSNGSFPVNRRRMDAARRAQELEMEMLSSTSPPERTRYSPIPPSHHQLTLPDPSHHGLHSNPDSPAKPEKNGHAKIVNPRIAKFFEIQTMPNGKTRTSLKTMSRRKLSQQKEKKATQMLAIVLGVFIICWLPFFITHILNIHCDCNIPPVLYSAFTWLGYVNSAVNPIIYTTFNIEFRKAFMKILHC
Experimental: Inhibition of ^3 H-Spiroperidol Binding to Dopamine D2 Receptors in Rat Corpus Striatum in vitro
By this method the inhibition by drugs of the binding of ^3 H-spiroperidol (0.5 nM) to dopamine D2 receptors in membranes from rat corpus striatum is determined in vitro.

[1] = in vivo; cited from earlier work
[2] = in vivo; cited from earlier work; remark: listed apart in the source
[3] = in vivo; cited from earlier work; remark: listed apart in the source
[4] = in vivo; cited from earlier work; remark: listed apart in the source
[5] = in vivo; cited from earlier work; remark: listed apart in the source

In the case of CN(C)CCOc1cn(-c2ccc(F)cc2)c2ccc(Br)cc12 [Compound 16a, N,N-Dimethyl-2-[5-bromo-1-(4-fluorophenyl)-1H-indol-3-yloxy]ethylamine, Hydrochloride], the IC50 (5-HT2 receptors) is reported as 7 nM and the IC50 (dopamine D2 receptors) is reported as 6.2 nM.

With CN(C)CCOc1cn(-c2ccc(F)cc2)c2ccc(C#N)cc12 [Compound 17a, N,N-Dimethyl-2-[5-cyano-1-(4-fluorophenyl)-1H-indol-3-yloxy]ethylamine, Hydrochloride] the IC50 (5-HT2 receptors) was 21 nM and the IC50 (dopamine D2 receptors) was 0.98 nM.

In the case of Cc1nc2sccn2c(=O)c1CCN1CCC(=C(c2ccc(F)cc2)c2ccc(F)cc2)CC1 [ritanserin], the “antidepressant effect / depressive symptoms of schizophrenia” value [1] is given as “shown to be an antidepressant and to improve depressive symptoms of schizophrenia”, the neuroleptic-induced parkinsonism [2] is given as “relieve neuroleptic-induced parkinsonism” and the “effects in an animal test indicative of anxiolytic drug activity” value [3] is given as “exert effects in an animal test indicative of anxiolytic drug activity”. For the same compound, the “abuse of alcohol and drugs” value [4] was “reduce abuse of alcohol and drugs” and the quality of sleep [5] was “improve the quality of sleep”.
